In PubChem BioAssay (NCI):
Values joined by “and” are separate entries in the source; they are usually repeats but may differ in a detail not shown here. Equal values may be shown once.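 Cultured in 96-well plates, cells were exposed to test compound for 48 hours across five concentrations. GI50 marks 50% less growth. TGI: total growth inhibition.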

Columns and labels:
Test in all cases: NCI tumour cell line growth inhibition, 48 h
SNB-19 CNS = system: SNB-19 CNS
SNB-78 CNS = system: SNB-78 CNS
SK-MEL-2 melanoma = system: SK-MEL-2 melanoma
M19-MEL melanoma = system: M19-MEL melanoma
U251 CNS = system: U251 CNS
OVCAR-4 ovarian = system: OVCAR-4 ovarian
CCRF-CEM leukemia = system: CCRF-CEM leukemia
HT29 colon = system: HT29 colon
PC-3 prostate = system: PC-3 prostate
DU-145 prostate = system: DU-145 prostate

Structure (SMILES) | GI50 (SNB-19 CNS) | TGI (SNB-19 CNS) | GI50 (SNB-78 CNS) | TGI (SNB-78 CNS) | TGI (SK-MEL-2 melanoma) | GI50 (M19-MEL melanoma) | TGI (M19-MEL melanoma) | TGI (U251 CNS) | GI50 (OVCAR-4 ovarian) | TGI (OVCAR-4 ovarian) | TGI (CCRF-CEM leukemia) | GI50 (HT29 colon) | TGI (HT29 colon) | GI50 (PC-3 prostate) | GI50 (SK-MEL-2 melanoma) | GI50 (DU-145 prostate) | TGI (DU-145 prostate) | GI50 (U251 CNS) | GI50 (CCRF-CEM leukemia) | TGI (PC-3 prostate)
N#CCCN(CCC#N)c1ccc(C(Sc2ccccc2)C(NC(=O)c2cc([N+](=O)[O-])ccc2Cl)C(=O)Sc2ccccc2)cc1 (stereo not given) | 3.98 µM | 18.6 µM | 2.97 µM | 34.5 µM | 4.64 µM | 2.95 µM | 11.9 µM | 4.15 µM and 6.01 µM | 3.92 µM | 15.7 µM | 0.765 µM and 0.479 µM | 2.59 µM | 7.58 µM | – | – | – | – | – | – | –
NC(=S)NNc1c([N+](=O)[O-])cnn(-c2ccccc2)c1=O | – | 33.9 µM | – | 48.3 µM | – | – | 26.5 µM | 30.7 µM | – | 31.8 µM | – | – | 35.1 µM | – | – | – | – | – | – | –
CN1CC[C@]2(C)c3ccc(O)cc3CC3CCCC1C32C (stereo not given in full) | – | > 100 µM | – | > 100 µM | > 100 µM | – | > 100 µM | > 100 µM | – | – | > 100 µM | – | > 100 µM | – | – | – | – | – | – | –
Cc1ccc(-c2cc(-c3ccccc3)c(C#N)c(=O)n2C2OC(CO)C(O)C(O)C2O)cc1 (stereo not given) | – | > 100 µM | – | > 100 µM | – | – | > 100 µM | > 100 µM | – | > 100 µM | > 100 µM | – | > 100 µM | – | – | – | – | – | – | –
C/C=C1\NC(=O)[C@H]2CSSCCC=C[C@H](CC(=O)N[C@H](C(C)C)C(=O)N2)OC(=O)[C@H](C(C)C)NC1=O | < 0.01 µM | 0.0301 µM and 0.0538 µM | 0.0123 µM | – | – | – | 0.0564 µM and 0.065 µM | < 0.01 µM and 0.00147 µM and < 0.0252 µM | 0.0109 µM and < 0.0102 µM | 0.201 µM and 0.0892 µM and 0.619 µM | 0.273 µM and 0.0534 µM and 0.102 µM | < 0.01 µM | < 0.01 µM and 0.0116 µM and 0.0262 µM | < 0.01 µM | < 10 nM and 0.0954 nM | < 0.01 µM | 0.226 µM and 0.0645 µM and 0.199 µM | < 0.01 µM and 0.000136 µM | < 0.01 µM | –
OC1(c2ccccc2)OC(C#Cc2ccccc2)(c2ccccc2)c2ccccc21 (stereo not given) | – | 26.3 µM | – | 23.2 µM | – | – | 11.1 µM | 15.1 µM | – | 5.85 µM | > 100 µM | – | 4.38 µM | – | – | – | – | – | – | –
CCC1=NC(CO)[C@H](c2ccccc2)O1 (stereo not given in full) | – | > 100 µM | – | > 100 µM | > 100 µM | – | > 100 µM | > 100 µM | – | > 100 µM | – | – | > 100 µM | – | – | – | – | – | – | –
Cc1cccc(-n2c(=S)[nH]c3c(sc(=O)n3-c3ccccc3C)c2=O)c1 | – | > 100 µM | – | > 100 µM | > 100 µM | – | > 100 µM | > 100 µM | – | > 100 µM | > 100 µM | – | > 100 µM | – | – | – | – | – | – | –
C/C(=N\N(c1ccccc1)c1ccccc1)c1c(O)cc(C)oc1=O | – | > 100 µM | – | > 100 µM | > 100 µM | – | > 100 µM | > 100 µM | – | > 100 µM | > 100 µM | – | > 100 µM | – | – | – | – | – | – | –
COc1ccc(/C=C2\CCCC(C(NO)c3ccc(OC)cc3)C2=NO)cc1 (stereo not given) | – | > 100 µM | – | > 100 µM | > 100 µM | – | > 100 µM | > 100 µM | – | > 100 µM | > 100 µM | – | > 100 µM | – | – | – | – | – | – | –
NCCCCNc1ccc2c(=O)[nH][nH]c(=O)c2c1 | – | > 100 µM | – | > 100 µM | > 100 µM | – | > 100 µM | > 100 µM | – | > 100 µM | > 100 µM | – | > 100 µM | – | – | – | – | – | – | –
CC1=C(C(=O)Nc2cccc(Cl)c2)C(c2ccccc2F)C(C(=O)Nc2cccc(Cl)c2)=C(C)N1 | – | > 100 µM | – | 60.9 µM | 27.1 µM | – | 26.4 µM | 37.7 µM | – | 21.3 µM | 26.2 µM | – | 15.5 µM | – | – | – | – | – | – | –
COc1ccc(N2C(=O)[C@H]3CC(C)c4c([nH]c5ccccc45)[C@H]3C2=O)cc1 (stereo not given in full) | – | > 71.8 µM | – | > 59.5 µM | 16.5 µM | – | 55.5 µM | 20.4 µM | – | 30.6 µM | 46.9 µM | – | 21 µM | – | – | – | > 45.8 µM | – | – | 23.6 µM
COc1ccc(Cn2c3c(cc(OS(=O)(=O)C(F)(F)F)c2=O)Cc2ccccc2-3)cc1 | 23.7 µM | 50 µM and > 100 µM | – | – | 50 µM and > 100 µM | – | – | 50 µM and > 100 µM | 9.56 µM | 50 µM and > 100 µM | 50 µM and > 100 µM | 79 µM | > 100 µM | 26.7 µM | 14500 nM | 17.1 µM | 50 µM and > 100 µM | 6.55 µM | 3.95 µM | > 100 µM
COc1cc(/C=C2\C(=O)Nc3ccc(N(C)C)cc32)cc(OC)c1OC | 3.67 µM | > 100 µM | – | – | 8.31 µM | – | – | 14.6 µM | 3.7 µM | > 100 µM | 10.1 µM | 2.11 µM | > 100 µM | 1.73 µM | 2770 nM | 3.08 µM | > 29.3 µM | 3.1 µM | 2.28 µM | > 100 µM
